Assay: Inhibition of TSZ-induced necroptosis in human HT-29 cells by CellTiter-Glo luminescent cell viability assay

Structure (SMILES) | EC50 [µM]
O=C(c1cccc(F)n1)N1CCC(C(=O)N2N=CCC2c2cccc(F)c2)CC1 (configuration not stated) | 0.0983
O=C(c1ccccn1)N1CCC(C(=O)N2N=CCC2c2cccc(F)c2)CC1 (configuration not stated) | 0.0682
